How the values were obtained:
Assay type in all cases: in vivo
[1] = test system: kochia (Kochia scoparia); experiment: Test A postemergence, visual plant response rating; settings: for Kochia plant response rating: Postemergence, 125 g ai/ha, 0 to 100 scale (0 no effect, 100 complete control)
How it was run: (§1)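 Greenhouse pot test in loam–sand soil mix: compound in a surfactant-containing non-phytotoxic solvent applied preemergence (directed soil spray) or postemergence (one- to two-leaf plants, 2–10 cm). Injury scored visually after ~10 days, 0–100.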

[2] = test system: blackgrass (Alopecurus myosuroides); experiment: Test A postemergence, visual plant response rating; settings: for Blackgrass plant response rating: Postemergence, 125 g ai/ha, 0 to 100 scale (0 no effect, 100 complete control)
How it was run: as §1

[3] = test system: barnyardgrass (Echinochloa crus-galli); experiment: Test A postemergence, visual plant response rating; settings: for Barnyardgrass plant response rating: Postemergence, 125 g ai/ha, 0 to 100 scale (0 no effect, 100 complete control)
How it was run: as §1

[4] = test system: corn (Zea mays); experiment: Test A postemergence, visual plant response rating; settings: for Corn plant response rating: Postemergence, 125 g ai/ha, 0 to 100 scale (0 no effect, 100 complete control)
How it was run: as §1

[5] = test system: Italian ryegrass (Lolium multiflorum); experiment: Test A postemergence, visual plant response rating; settings: for Ryegrass, Italian plant response rating: Postemergence, 125 g ai/ha, 0 to 100 scale (0 no effect, 100 complete control)
How it was run: as §1

[6] = test system: wheat (Triticum aestivum); experiment: Test A postemergence, visual plant response rating; settings: for Wheat plant response rating: Postemergence, 125 g ai/ha, 0 to 100 scale (0 no effect, 100 complete control)
How it was run: as §1

[7] = test system: pigweed (Amaranthus retroflexus); experiment: Test A postemergence, visual plant response rating; settings: for Pigweed plant response rating: Postemergence, 125 g ai/ha, 0 to 100 scale (0 no effect, 100 complete control)
How it was run: as §1

[8] = test system: foxtail, giant (giant foxtail, Setaria faberii); experiment: Test A postemergence, visual plant response rating; settings: for Foxtail, Giant plant response rating: Postemergence, 125 g ai/ha, 0 to 100 scale (0 no effect, 100 complete control)
How it was run: as §1

[9] = test system: ragweed (common ragweed, Ambrosia elatior); experiment: Test A postemergence, visual plant response rating; settings: for Ragweed plant response rating: Postemergence, 125 g ai/ha, 0 to 100 scale (0 no effect, 100 complete control)
How it was run: as §1

[10] = test system: galium (catchweed bedstraw, Galium aparine); experiment: Test A postemergence, visual plant response rating; settings: for Galium plant response rating: Postemergence, 125 g ai/ha, 0 to 100 scale (0 no effect, 100 complete control)
How it was run: as §1

[11] = test system: barnyardgrass (Echinochloa crus-galli); experiment: Test B flooded paddy test, visual plant response rating; settings: 250 g ai/ha, Flood, applied to paddy water, 2-leaf stage, evaluated after 13 to 15 days
How it was run: (§2)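 At the two-leaf stage, seedlings received compound applied to paddy water flooded 3 cm above soil, a level sustained until assessment. Greenhouse incubation lasted 13 to 15 days before visual comparison with control plants.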

[12] = test system: rice (Oryza sativa); experiment: as above; settings: 250 g ai/ha, Flood, applied to paddy water, 2-leaf stage, evaluated after 13 to 15 days
How it was run: as §2

[13] = test system: sedge, umbrella (small-flower umbrella sedge, Cyperus difformis); experiment: as above; settings: 250 g ai/ha, Flood, applied to paddy water, 2-leaf stage, evaluated after 13 to 15 days
How it was run: as §2

[14] = test system: ducksalad (Heteranhera limosa); experiment: as above; settings: 250 g ai/ha, Flood, applied to paddy water, 2-leaf stage, evaluated after 13 to 15 days
How it was run: as §2

[15] = test system: kochia (Kochia scoparia); experiment: Test A preemergence, visual plant response rating; settings: for Kochia plant response rating: preemergence, 0 to 100 scale, 0 no effect, 100 complete control
How it was run: as §1

[16] = test system: barnyardgrass (Echinochloa crus-galli); experiment: Test A preemergence, visual plant response rating; settings: for Barnyardgrass plant response rating: preemergence, 0 to 100 scale, 0 no effect, 100 complete control
How it was run: as §1

[17] = test system: Italian ryegrass (Lolium multiflorum); experiment: Test A preemergence, visual plant response rating; settings: for Ryegrass, Italian plant response rating: preemergence, 0 to 100 scale, 0 no effect, 100 complete control
How it was run: as §1

[18] = test system: pigweed (Amaranthus retroflexus); experiment: Test A preemergence, visual plant response rating; settings: for Pigweed plant response rating: preemergence, 0 to 100 scale, 0 no effect, 100 complete control
How it was run: as §1

[19] = test system: foxtail, giant (giant foxtail, Setaria faberii); experiment: Test A preemergence, visual plant response rating; settings: for Foxtail, Giant plant response rating: preemergence, 0 to 100 scale, 0 no effect, 100 complete control
How it was run: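 Compared with untreated controls, treated plants received a visual injury score on a 0–100 scale around 10 days after application. The compound, in a non-phytotoxic solvent with surfactant, was given as a preemergence soil spray or postemergence at the one- to two-leaf stage.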

[20] = test system: ragweed (common ragweed, Ambrosia elatior); experiment: Test A preemergence, visual plant response rating; settings: for Ragweed plant response rating: preemergence, 0 to 100 scale, 0 no effect, 100 complete control
How it was run: as §1

[21] = 31 g ai/ha Postemergence, approx. 10 days
[22] = 500 g ai/ha, postemergence, 0 is no effect, 100 is complete control
[23] = 500 g ai/ha Preemergence, approx. 10 days

Row | Compound | Kochia plant response rating [1] | Blackgrass plant response rating [2] | Barnyardgrass plant response rating [3] | Corn plant response rating [4] | Ryegrass, Italian plant response rating [5] | Wheat plant response rating [6] | Pigweed plant response rating [7] | Foxtail, Giant plant response rating [8] | Ragweed plant response rating [9] | Galium plant response rating [10] | Plant response rating, Barnyardgrass (0 to 100 scale, 0 is no effect, 100 is complete control) [11] | Plant response rating, Rice (0 to 100 scale, 0 is no effect, 100 is complete control) [12] | Plant response rating, Sedge, Umbrella (0 to 100 scale, 0 is no effect, 100 is complete control) [13] | Plant response rating, Ducksalad (0 to 100 scale, 0 is no effect, 100 is complete control) [14] | Kochia plant response rating ([15]; 125 g ai/ha) | Barnyardgrass plant response rating ([16]; 125 g ai/ha) | Ryegrass, Italian plant response rating ([17]; 125 g ai/ha) | Pigweed plant response rating ([18]; 125 g ai/ha) | Foxtail, Giant plant response rating ([19]; 125 g ai/ha) | Ragweed plant response rating ([20]; 125 g ai/ha) | other results
1 | CON=C(c1c(OC(C)=O)c(C)nn(C)c1=O)c1cccc2ccccc12 [Compound 120] | 30 | 20 | 20 | 0 | 30 | 0 | 50 | 40 | 20 | 80 | 0 | 0 | 0 | 0 | 10 | 10 | 10 | 100 | 50 | 10 | Kochia plant response rating (0 to 100 scale) [1, 21]: 10; Blackgrass plant response rating (0 to 100 scale) [2, 21]: 0; Barnyardgrass plant response rating (0 to 100 scale) [3, 21]: 0; Corn plant response rating (0 to 100 scale) [4, 21]: 0; Ryegrass, Italian plant response rating (0 to 100 scale) [5, 21]: 0; Wheat plant response rating (0 to 100 scale) [6, 21]: 0; Pigweed plant response rating (0 to 100 scale) [7, 21]: 30; Foxtail, Giant plant response rating (0 to 100 scale) [8, 21]: 0; Ragweed plant response rating (0 to 100 scale) [9, 21]: 0; Galium plant response rating (0 to 100 scale) [10, 21]: 40; Kochia plant response rating ([15]; 31 g ai/ha): 0; Barnyardgrass plant response rating ([16]; 31 g ai/ha): 0; Ryegrass, Italian plant response rating ([17]; 31 g ai/ha): 0; Pigweed plant response rating ([18]; 31 g ai/ha): 60; Foxtail, Giant plant response rating ([19]; 31 g ai/ha): 20; Ragweed plant response rating ([20]; 31 g ai/ha): 0
2 | C=CCc1ccccc1C(=NOC)c1c(O)c(C)nn(C)c1=O [Compound 121] | 40 | 30 | 0 | 0 | 60 | 30 | 50 | 20 | 40 | 60 | 0 | 0 | 0 | 0 | 0 | 0 | 50 | 10 | 10 | 10 | Kochia plant response rating (0 to 100 scale) [1, 22]: 60; Blackgrass plant response rating (0 to 100 scale) [2, 22]: 70; Barnyardgrass plant response rating (0 to 100 scale) [3, 22]: 70; Corn plant response rating (0 to 100 scale) [4, 22]: 10; Ryegrass, Italian plant response rating (0 to 100 scale) [5, 22]: 90; Wheat plant response rating (0 to 100 scale) [6, 22]: 40; Pigweed plant response rating (0 to 100 scale) [7, 22]: 70; Foxtail, Giant plant response rating (0 to 100 scale) [8, 22]: 60; Ragweed plant response rating (0 to 100 scale) [9, 22]: 70; Galium plant response rating (0 to 100 scale) [10, 22]: 90; Kochia plant response rating (0 to 100 scale) [15, 23]: 30; Barnyardgrass plant response rating (0 to 100 scale) [16, 23]: 20; Ryegrass, Italian plant response rating (0 to 100 scale) [17, 23]: 100; Pigweed plant response rating (0 to 100 scale) [18, 23]: 90; Foxtail, Giant plant response rating (0 to 100 scale) [19, 23]: 80; Ragweed plant response rating (0 to 100 scale) [20, 23]: 50

— patent publication US20210045385A1, “PYRIDAZINONE-SUBSTITUTED KETOXIMES AS HERBICIDES” (FMC Corporation, priority 2018, published 2021)
